# Test results taken from patent US6521267B1, “Tyrosinase inhibitors from plants” (Fytokem Prtoducts, Inc., priority 1998, dated 2003).
# Tested on: tyrosinase (Sigma T-7755)
# Assay: tyrosinase assay: conversion of L-DOPA to DOPAquinone, monitored at 475 nm
# Type: biochemical
# Details: for INHIBITION OF ENZYME: comparison standard, 1% solution (solids present 1.0); for Inhibition of tyrosinase enzyme step 2, 0.001% conc: ingredient at 0.001% conc; for Inhibition of tyrosinase enzyme step 2, 0.01% conc: ingredient at 0.01% conc; for Inhibition of tyrosinase enzyme step 2, 0.1% conc: ingredient at 0.1% conc; for Inhibition of tyrosinase enzyme step 2, 1% conc: ingredient at 1% conc
# Protocol: The tyrosinase assay was based on methods previously published (Mason, H. S., (1948) J. Biol. Chem. 172, 83-86; Dawson, C. R. and Magee, R. J. (1955) Methods in Enzymology II 817-827 (Editors-in-chief S. P. Colowick and N. O. Caplan); Lerner, A. B. (1955) ibid 827-831; Bergmeyer, U. H. (1983) Methods of Enzymatic Analysis (Published by Verlag Chemie, Weinheim)). The protocol was as follows, scaled for the approximately twenty sample determinations:
# (a) A buffer solution of pH 6.5 was prepared by dissolving 1.4 9 disodium monohydrogen phosphate (Na2HPO4) and 1.4 g monopotassium dihydrogen phosphate (KH2PO4) in pure water to make 200 mL.
# (b) An enzyme solution of either 1.0 mg or 3.0 mg tyrosinase (Sigma T-7755) was prepared in 30 mL buffer and stored at 2° C. until use.
# (c) A substrate solution was prepared by dissolving 0.10 g L-DOPA (L-3,4-dihydroxyphenyl-alanine, Sigma D-9661) in 100 ML buffer.
# (d) The unfettered enzyme reaction rate was measured by mixing together 0.5 mL buffer solution and 0.5 mL substrate solution in twin acrylate mini-cuvettes (path 2.0 mm), and after observing the stability of the mixture, mixing in 0.25 mL enzyme solution to one cuvette. The formation of red DOPAquinone was monitored spectrophotometrically at 475 nm, at times 0, 1, 2 and 3 minutes.
# (e) The effect of added substances on the enzyme reaction rate was measured by mixing together 0.5 mL buffer solution, 0.5 mL substrate solution and 0.25 mL test substance (at 1% strength in 50:50 butyleneglycol:water) in twin acrylate mini-cuvette. The reaction was tracked spectrophotometrically at 475 nm, reading at 0, 1, 2 and 3 minutes.
# (f) The effect of test substances on reaction rate was expressed as inhibition (I) where I=100−[100 (trt absorbance change, 3 min)/100(control absorbance change, 3 min)].
# Concentrations of substrate, enzyme or test substance can be varied as appropriate.
# (§1) This assay duplicates rate-controlling steps in the human metabolic pathway to skin pigmentation. Pure hydroquinone in 1% solution was employed as a comparison standard.
# as §1
SMILES,"Enzymes reaction rate reduction @ 5 μg enzyme (5 μg enzyme, test substance at 1% strength) [%]","Enzymes reaction rate reduction @ 15 μg enzyme (15 μg enzyme, test substance at 1% strength) [%]",INHIBITION OF ENZYME (Table 3),"Inhibition of tyrosinase enzyme step 2, 0.001% conc (Table 4) [%]","Inhibition of tyrosinase enzyme step 2, 0.01% conc (Table 4) [%]","Inhibition of tyrosinase enzyme step 2, 0.1% conc (Table 4) [%]","Inhibition of tyrosinase enzyme step 2, 1% conc (Table 4) [%]",INHIBITION OF ENZYME (Table 5),"Inhibition of tyrosinase enzyme step 2, 0.001% conc (Table 6) [%]","Inhibition of tyrosinase enzyme step 2, 0.01% conc (Table 6) [%]","Inhibition of tyrosinase enzyme step 2, 0.1% conc (Table 6) [%]","Inhibition of tyrosinase enzyme step 2, 1% conc (Table 6) [%]",effect on tyrosinase in standard assays (in words) (constituents of TYROSTAT compositions)
"Oc1ccc(O)cc1 [Hydroquinone, 1,4-dihydroxybenzene]",65,55,58-62%,<10,<10,31,60,38-62%,<10,<10,31,60,–
"CC(O)CCO (stereo not drawn) [butanediol, 1,3-butanediol]",–,–,–,–,–,–,–,–,–,–,–,–,slightly inhibitory
"O=C1O[C@H]([C@@H](O)CO)C(O)=C1O [Ascorbic acid, L-ascorbic acid]",–,–,–,23,82,100,100,–,23,82,100,100,–
